Laboratory results as given in patent publication US20170267667A1, “[…] AS NON-NUCLEOSIDE REVERSE TRANSCRIPTASE INHIBITORS FOR ANTI-HIV-1 CHEMOTHERAPY” (Purdue Research Foundation, priority 2016, published 2017).

What was measured:
[1] = target: HIV-1 reverse transcriptase (Human immunodeficiency virus type 1 group M subtype B, UniProt P04585); experiment: RT inhibition assay, incorporation of [32P]GTP into poly(rC)/oligo(dG) template primer; assay type: biochemical; details: poly(rC):oligo(dG) as the template primer; mean of at least two experiments; read-out: IC50 inhibitory activity versus HIV-1 reverse transcriptase
Procedure: RT Inhibition Assay. Inhibition of purified recombinant reverse transcriptase was measured by the incorporation of [^32P]GTP into poly(rC)/oligo(dG) homopolymer template primers, as previously described (Cushman, M., et al., J. Med. Chem. 1996, 39, 3217-3227).

HIV-1RF = experiment: XTT cytoprotection assay, HIV-1RF infection in CEM-SS cells; assay type: cell-based; details: for SI (CC50/EC50) CEM-SS cells: CC50/EC50 ratio, HIV-1RF in CEM-SS cells; for EC50: Human immunodeficiency virus 1, inhibition of cytopathicity of HIV-1RF in CEM-SS cells
Procedure: (§1) In Vitro Antiviral Assay. Evaluation of the antiviral activity of compounds against HIV- 1RF infection in CEM-SS cells was performed using the XTT cytoprotection assay, as previously described (Buckheit, R. W. Jr., et al., Antiviral Res. 1995, 26, 117-132). Evaluation of the antiviral activity of compounds against HIV-1IIIB and HIV-2ROD in MT-4 cells was performed using the MTT assay, as previously described (Rice, W. G. and Bader, J. P., Adv. Pharmacol. (San Diego) 1995, 33, 389-438).

HIV-1IIIB = experiment: MTT assay, HIV-1IIIB in MT-4 cells; assay type: cell-based; details: for SI (CC50/EC50) MT-4 cells: CC50/EC50 ratio, HIV-1IIIB in MT-4 cells; for EC50: Human immunodeficiency virus 1, MT4, inhibition of cytopathicity of HIV-1IIIB in MT-4 cells
Procedure: as §1

[2] = Cytotoxicity for mock-infected CEM-SS cells; assay type: cell-based; details: human
Procedure: as §1
(§2) Biological Results. The antiviral activities of the ADAMs were evaluated by determining their ability to inhibit the enzymatic activity of HIV-1 RT in vitro (IC50) and protect HIV-infected cells from the cytopathic effects (EC50) of two viral strains (HIV-1RF and HIV-1IIIB). The cytotoxicities (CC50) of the ADAMs were determined on CEM-SS cells and MT-4 cells.

[3] = Cytotoxicity for mock-infected MT-4 cells; assay type: cell-based; details: human
Procedure: as §1, §2

## CON=C(Cl)c1cc(/C(=C\CCCc2nnc(C)o2)c2cc(C)c3onc(OC)c3c2)cc(C)c1OC [ADAM 19, N,2-Dimethoxy-5-[(1Z)-1-(3-methoxy-7-methyl-1,2-benzoxazol-5-yl)-5-(5-methyl-1,3,4-oxadiazol-2-yl)pent-1-en-1-yl]-3-methylbenzenecarboximidoyl Chloride]
[1]
  IC50: 33.8 µM
HIV-1RF
  SI (CC50/EC50) CEM-SS cells: 2
  EC50: 5.2 µM
HIV-1IIIB
  SI (CC50/EC50) MT-4 cells: ≦2
  EC50: ≥ 7.03 µM
[2]
  CC50: 9.7 µM
[3]
  CC50: 17.5 µM

## CON=C(F)c1cc(/C(=C\CCCc2nnc(C)o2)c2cc(C)c3oc(=O)n(C)c3c2)cc(C)c1OC [ADAM 5, 5-[(1E)-1-(3,7-Dimethyl-2-oxo-2,3-dihydro-1,3-benzoxazol-5-yl)-5-(5-methyl-1,3,4-oxadiazol-2-yl)pent-1-en-1-yl]-N,2-dimethoxy-3-methylbenzenecarboximidoyl Fluoride]
[1]
  IC50: 3.4 µM
HIV-1RF
  SI (CC50/EC50) CEM-SS cells: 13
  EC50: 0.5 µM
HIV-1IIIB
  SI (CC50/EC50) MT-4 cells: 76
  EC50: 0.35 µM
[2]
  CC50: 6.5 µM
[3]
  CC50: 26.5 µM

## CO/N=C(\Cl)CCC/C=C(\c1cc(C)c(OC)c(C(=O)SC)c1)c1cc(C)c2onc(OC)c2c1 [ADAM 27, S-Methyl 5-[(1Z,6Z)-6-Chloro-6-(methoxyimino)-1-(3-methoxy-7-methyl-1,2-benzoxazol-5-yl)hex-1-en-1-yl]-2-methoxy-3-methylbenzenecarbothioate]
[1]
  IC50: 36.4 µM
HIV-1RF
  SI (CC50/EC50) CEM-SS cells: 3
  EC50: 2.42 µM
HIV-1IIIB
  SI (CC50/EC50) MT-4 cells: 5
  EC50: 3.27 µM
[2]
  CC50: 7.2 µM
[3]
  CC50: 16.3 µM

## CON=C(F)c1cc(/C(=C\CCCc2nc(C)no2)c2cc(C)c3onc(OC)c3c2)cc(C)c1OC [ADAM 8, N,2-Dimethoxy-5-[(1Z)-1-(3-methoxy-7-methyl-1,2-benzoxazol-5-yl)-5-(3-methyl-1,2,4-oxadiazol-5-yl)pent-1-en-1-yl]-3-methylbenzenecarboximidoyl Fluoride]
[1]
  IC50: 1.85 µM
HIV-1RF
  SI (CC50/EC50) CEM-SS cells: 3
  EC50: 2.04 µM
HIV-1IIIB
  SI (CC50/EC50) MT-4 cells: 2
  EC50: 4.07 µM
[2]
  CC50: 5.39 µM
[3]
  CC50: 9.66 µM

## CON=C(Cl)c1cc(/C(=C\CCCc2nnc(C)o2)c2cc(C)c3oc(=O)n(C)c3c2)cc(C)c1OC [ADAM 16, 5-[(1E)-1-(3,7-Dimethyl-2-oxo-2,3-dihydro-1,3-benzoxazol-5-yl)-5-(5-methyl-1,3,4-oxadiazol-2-yl)pent-1-en-1-yl]-N,2-dimethoxy-3-methylbenzenecarboximidoyl Chloride]
[1]
  IC50: 8.2 µM
HIV-1RF
  SI (CC50/EC50) CEM-SS cells: 4
  EC50: 1.1 µM
HIV-1IIIB
  SI (CC50/EC50) MT-4 cells: 27
  EC50: 0.74 µM
[2]
  CC50: 4.7 µM
[3]
  CC50: 19.9 µM

## CON=C(F)c1cc(/C(=C\CCCc2nnc(C)o2)c2ccc(C#N)cc2)cc(C)c1OC [ADAM 13, 5-[(1Z)-1-(4-Cyanophenyl)-5-(5-methyl-1,3,4-oxadiazol-2-yl)pent-1-en-1-yl]-N,2-dimethoxy-3-methylbenzenecarboximidoyl Fluoride]
[1]
  IC50: 44.4 µM
HIV-1RF
  EC50: > 100 µM
HIV-1IIIB
  SI (CC50/EC50) MT-4 cells: ≦1
  EC50: ≥ 9 µM
[2]
  CC50: 6.7 µM
[3]
  CC50: 11.4 µM

## CON=C(Cl)c1cc(/C(=C\CCCc2nc(C)no2)c2cc(C)c3oc(=O)n(C)c3c2)cc(C)c1OC [ADAM 17, 5-[(1E)-1-(3,7-Dimethyl-2-oxo-2,3-dihydro-1,3-benzoxazol-5-yl)-5-(3-methyl-1,2,4-oxadiazol-5-yl)pent-1-en-1-yl]-N,2-dimethoxy-3-methylbenzenecarboximidoyl Chloride]
[1]
  IC50: 4.19 µM
HIV-1RF
  SI (CC50/EC50) CEM-SS cells: 5
  EC50: 0.51 µM
HIV-1IIIB
  SI (CC50/EC50) MT-4 cells: 59
  EC50: 0.5 µM
[2]
  CC50: 2.37 µM
[3]
  CC50: 29.4 µM
